# From paper PMC8222254, “Self-assembly of an anion receptor with metal-dependent kinase inhibition and potent in vitro anti-cancer properties” (Nature Communications, 2021)
# Where “and” joins values, the source holds several entries; their conditions need not be identical. Equal values may be shown once.
# Legend:
# Assay in all cases: Kinase inhibition screen, cell-free 33P ATP assay at 10 μM
# Format in all cases: biochemical
# [1] = target: 140 purified human kinases (Homo sapiens, UniProt P45984)
# Outline: (§1)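 Radiometric ^33P ATP cell-free format with purified enzymes; both complexes run at 10 μM in duplicate, results plotted on a kinome map via HGNC symbols.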
# [2] = target: T1, 140 purified human kinases (Homo sapiens, UniProt P53778); settings: p38g MAPK
# T1 sequence (P53778 1-367): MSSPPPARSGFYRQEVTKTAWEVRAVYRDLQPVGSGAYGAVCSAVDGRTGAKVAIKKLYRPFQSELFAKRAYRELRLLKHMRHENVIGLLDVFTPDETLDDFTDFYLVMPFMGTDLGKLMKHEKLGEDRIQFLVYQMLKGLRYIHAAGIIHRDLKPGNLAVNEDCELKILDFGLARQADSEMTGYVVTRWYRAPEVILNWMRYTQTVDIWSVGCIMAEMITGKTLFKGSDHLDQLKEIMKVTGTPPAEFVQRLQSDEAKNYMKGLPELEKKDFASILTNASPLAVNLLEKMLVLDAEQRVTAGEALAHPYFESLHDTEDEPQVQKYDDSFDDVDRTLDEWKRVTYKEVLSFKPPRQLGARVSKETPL
# Outline: as §1
# [3] = target: 140 purified human kinases (Homo sapiens, UniProt Q15303)
# Outline: as §1
# [4] = target: 140 purified human kinases (Homo sapiens, UniProt Q96RR4); settings: CAMKKb
# Outline: as §1
# [5] = target: 140 purified human kinases (Homo sapiens, UniProt Q9BYT3)
# Outline: as §1
# [6] = target: 140 purified human kinases (Homo sapiens, UniProt Q9NQU5)
# Outline: as §1
# [7] = target: 140 purified human kinases (Homo sapiens, UniProt Q9P0L2)
# Outline: as §1
# [8] = target: T2, 140 purified human kinases (Homo sapiens, UniProt Q9UKI8)
# T2 sequence (Q9UKI8 1-766): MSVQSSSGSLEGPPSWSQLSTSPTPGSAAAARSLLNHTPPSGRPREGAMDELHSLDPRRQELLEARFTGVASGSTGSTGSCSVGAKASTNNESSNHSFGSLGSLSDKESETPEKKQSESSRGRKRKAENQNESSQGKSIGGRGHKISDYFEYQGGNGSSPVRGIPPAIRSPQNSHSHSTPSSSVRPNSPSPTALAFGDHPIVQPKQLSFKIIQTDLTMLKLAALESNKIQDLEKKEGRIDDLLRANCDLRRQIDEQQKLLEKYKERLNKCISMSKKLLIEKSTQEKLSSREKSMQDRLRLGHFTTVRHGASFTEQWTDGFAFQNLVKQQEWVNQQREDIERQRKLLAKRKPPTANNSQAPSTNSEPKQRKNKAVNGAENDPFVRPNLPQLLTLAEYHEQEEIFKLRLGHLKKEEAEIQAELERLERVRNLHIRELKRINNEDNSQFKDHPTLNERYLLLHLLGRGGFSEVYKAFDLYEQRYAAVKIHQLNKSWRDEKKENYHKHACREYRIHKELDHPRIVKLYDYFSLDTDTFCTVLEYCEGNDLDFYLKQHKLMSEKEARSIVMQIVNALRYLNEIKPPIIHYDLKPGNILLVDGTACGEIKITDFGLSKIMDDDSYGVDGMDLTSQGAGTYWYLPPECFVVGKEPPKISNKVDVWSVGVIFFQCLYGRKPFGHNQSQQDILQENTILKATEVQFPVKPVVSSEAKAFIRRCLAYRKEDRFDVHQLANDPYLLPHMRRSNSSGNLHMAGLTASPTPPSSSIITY
# Outline: as §1
# 140 purified human kinases (Homo sapiens, UniProt Q9NQU5), sequence (Q9NQU5 whole entry): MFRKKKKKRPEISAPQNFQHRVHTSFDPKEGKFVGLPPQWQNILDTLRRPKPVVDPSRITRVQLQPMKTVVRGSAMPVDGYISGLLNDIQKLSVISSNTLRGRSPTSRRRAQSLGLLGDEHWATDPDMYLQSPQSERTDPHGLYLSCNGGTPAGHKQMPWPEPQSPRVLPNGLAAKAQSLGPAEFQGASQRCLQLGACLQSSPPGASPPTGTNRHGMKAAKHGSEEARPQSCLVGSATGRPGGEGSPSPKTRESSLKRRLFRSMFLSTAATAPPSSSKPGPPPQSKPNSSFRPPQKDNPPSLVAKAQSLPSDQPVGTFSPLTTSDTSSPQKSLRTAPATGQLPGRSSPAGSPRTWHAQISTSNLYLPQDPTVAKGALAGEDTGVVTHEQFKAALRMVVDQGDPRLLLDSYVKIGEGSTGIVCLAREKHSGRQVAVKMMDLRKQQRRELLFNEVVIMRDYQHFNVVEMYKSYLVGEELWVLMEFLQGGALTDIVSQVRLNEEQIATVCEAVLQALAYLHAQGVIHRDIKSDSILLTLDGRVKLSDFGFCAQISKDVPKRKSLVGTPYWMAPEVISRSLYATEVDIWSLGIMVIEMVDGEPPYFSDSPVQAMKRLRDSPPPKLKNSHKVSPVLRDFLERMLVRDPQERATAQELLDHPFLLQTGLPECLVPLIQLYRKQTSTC
# 140 purified human kinases (Homo sapiens, UniProt Q9BYT3), sequence (Q9BYT3 whole entry): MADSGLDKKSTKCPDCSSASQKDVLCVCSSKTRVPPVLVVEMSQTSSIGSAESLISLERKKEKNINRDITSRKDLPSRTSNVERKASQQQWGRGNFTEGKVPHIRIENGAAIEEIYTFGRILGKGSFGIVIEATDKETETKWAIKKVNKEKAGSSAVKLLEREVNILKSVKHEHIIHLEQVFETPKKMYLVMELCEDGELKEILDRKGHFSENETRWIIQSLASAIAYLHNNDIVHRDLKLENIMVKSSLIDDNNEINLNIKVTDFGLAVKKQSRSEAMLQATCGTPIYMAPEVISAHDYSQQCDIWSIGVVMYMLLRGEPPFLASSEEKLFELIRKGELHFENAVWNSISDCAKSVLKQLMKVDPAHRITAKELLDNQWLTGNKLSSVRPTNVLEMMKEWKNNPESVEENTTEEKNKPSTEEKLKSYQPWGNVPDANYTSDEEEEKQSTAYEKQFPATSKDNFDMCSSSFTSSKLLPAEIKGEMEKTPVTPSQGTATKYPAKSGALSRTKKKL
# 140 purified human kinases (Homo sapiens, UniProt Q9P0L2), sequence (Q9P0L2 whole entry): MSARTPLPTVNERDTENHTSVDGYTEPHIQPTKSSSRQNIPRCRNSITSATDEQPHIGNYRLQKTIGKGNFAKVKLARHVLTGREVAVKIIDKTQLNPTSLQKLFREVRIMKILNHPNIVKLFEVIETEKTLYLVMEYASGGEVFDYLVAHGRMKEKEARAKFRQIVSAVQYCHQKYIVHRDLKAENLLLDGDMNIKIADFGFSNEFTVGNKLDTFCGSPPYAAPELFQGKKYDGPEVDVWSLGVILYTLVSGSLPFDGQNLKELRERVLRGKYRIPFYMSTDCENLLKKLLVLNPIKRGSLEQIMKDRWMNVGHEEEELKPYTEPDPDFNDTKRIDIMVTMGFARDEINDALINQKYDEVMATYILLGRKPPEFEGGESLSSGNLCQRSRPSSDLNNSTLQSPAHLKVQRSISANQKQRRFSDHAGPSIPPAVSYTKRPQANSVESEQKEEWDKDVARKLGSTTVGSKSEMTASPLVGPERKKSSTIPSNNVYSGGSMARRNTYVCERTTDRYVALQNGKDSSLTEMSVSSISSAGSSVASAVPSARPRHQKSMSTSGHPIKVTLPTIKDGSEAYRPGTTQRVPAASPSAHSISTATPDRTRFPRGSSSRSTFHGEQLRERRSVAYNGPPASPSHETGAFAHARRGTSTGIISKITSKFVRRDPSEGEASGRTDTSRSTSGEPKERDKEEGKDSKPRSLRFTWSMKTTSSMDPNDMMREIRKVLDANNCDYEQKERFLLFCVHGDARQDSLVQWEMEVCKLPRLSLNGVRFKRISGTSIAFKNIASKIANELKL
# 140 purified human kinases (Homo sapiens, UniProt P45984), sequence (P45984 whole entry): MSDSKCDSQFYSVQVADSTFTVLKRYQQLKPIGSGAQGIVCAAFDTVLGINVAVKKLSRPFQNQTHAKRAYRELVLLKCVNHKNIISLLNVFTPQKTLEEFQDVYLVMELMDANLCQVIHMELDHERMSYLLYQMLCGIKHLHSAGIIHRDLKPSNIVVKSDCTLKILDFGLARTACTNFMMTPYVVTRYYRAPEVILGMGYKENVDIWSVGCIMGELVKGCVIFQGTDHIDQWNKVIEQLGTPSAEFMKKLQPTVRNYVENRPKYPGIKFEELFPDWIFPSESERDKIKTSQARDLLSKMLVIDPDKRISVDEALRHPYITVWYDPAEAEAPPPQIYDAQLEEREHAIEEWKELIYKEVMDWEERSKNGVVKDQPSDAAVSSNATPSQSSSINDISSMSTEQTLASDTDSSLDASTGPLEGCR
# 140 purified human kinases (Homo sapiens, UniProt Q96RR4), sequence (Q96RR4 whole entry): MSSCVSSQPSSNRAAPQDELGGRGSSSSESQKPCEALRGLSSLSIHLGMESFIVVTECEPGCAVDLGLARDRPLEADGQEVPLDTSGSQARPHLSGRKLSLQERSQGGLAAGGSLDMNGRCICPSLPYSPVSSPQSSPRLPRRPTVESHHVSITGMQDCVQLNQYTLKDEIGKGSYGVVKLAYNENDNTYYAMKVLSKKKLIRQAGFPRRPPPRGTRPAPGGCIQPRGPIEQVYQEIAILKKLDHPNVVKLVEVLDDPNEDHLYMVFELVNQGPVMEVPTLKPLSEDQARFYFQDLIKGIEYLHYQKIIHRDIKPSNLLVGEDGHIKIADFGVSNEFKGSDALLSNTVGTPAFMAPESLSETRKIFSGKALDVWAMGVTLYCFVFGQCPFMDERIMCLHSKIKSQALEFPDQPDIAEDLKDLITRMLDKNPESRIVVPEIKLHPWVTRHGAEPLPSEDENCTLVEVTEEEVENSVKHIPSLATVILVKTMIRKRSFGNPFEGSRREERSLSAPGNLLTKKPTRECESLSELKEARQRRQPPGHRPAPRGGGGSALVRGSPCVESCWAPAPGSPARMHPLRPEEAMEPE
# 140 purified human kinases (Homo sapiens, UniProt Q15303), sequence (Q15303 26-1308): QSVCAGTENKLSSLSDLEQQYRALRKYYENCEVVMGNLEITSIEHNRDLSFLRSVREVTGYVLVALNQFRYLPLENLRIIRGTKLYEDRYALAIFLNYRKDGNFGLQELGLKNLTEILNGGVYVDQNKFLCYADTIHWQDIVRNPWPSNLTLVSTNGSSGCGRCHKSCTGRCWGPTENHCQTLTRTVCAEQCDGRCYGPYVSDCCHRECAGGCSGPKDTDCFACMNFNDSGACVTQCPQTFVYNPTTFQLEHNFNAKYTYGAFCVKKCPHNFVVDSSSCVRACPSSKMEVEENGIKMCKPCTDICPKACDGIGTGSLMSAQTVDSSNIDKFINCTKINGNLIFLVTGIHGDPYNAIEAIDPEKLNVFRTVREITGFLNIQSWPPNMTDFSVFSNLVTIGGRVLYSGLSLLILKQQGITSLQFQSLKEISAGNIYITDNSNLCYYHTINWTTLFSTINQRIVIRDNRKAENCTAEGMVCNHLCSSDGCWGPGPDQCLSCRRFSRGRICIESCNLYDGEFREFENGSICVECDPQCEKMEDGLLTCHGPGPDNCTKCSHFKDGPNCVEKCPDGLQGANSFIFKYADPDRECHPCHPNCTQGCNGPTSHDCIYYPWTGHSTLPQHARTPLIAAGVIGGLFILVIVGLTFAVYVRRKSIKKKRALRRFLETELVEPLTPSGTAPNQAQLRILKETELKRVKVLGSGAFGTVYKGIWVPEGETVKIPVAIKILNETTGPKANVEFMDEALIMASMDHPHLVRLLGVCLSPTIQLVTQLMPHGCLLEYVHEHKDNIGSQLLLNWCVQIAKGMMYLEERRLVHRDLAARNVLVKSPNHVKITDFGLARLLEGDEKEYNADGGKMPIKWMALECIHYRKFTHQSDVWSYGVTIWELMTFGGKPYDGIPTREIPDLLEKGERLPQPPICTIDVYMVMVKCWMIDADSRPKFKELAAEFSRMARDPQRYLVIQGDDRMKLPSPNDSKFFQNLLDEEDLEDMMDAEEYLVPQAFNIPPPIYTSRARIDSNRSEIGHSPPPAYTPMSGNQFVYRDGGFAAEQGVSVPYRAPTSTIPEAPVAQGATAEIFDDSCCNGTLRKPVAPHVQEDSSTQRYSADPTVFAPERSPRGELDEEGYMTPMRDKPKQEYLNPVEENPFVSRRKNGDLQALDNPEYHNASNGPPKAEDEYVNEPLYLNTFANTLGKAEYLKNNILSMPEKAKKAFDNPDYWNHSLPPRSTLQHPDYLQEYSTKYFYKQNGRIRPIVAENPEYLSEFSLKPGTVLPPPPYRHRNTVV
compound,measurement,setting,value
[Cu+2].[Cu+2].[Cu+2].c1ccc(-c2csc(NCCN(CCNc3nc(-c4ccccn4)cs3)CCNc3nc(-c4ccccn4)cs3)n2)nc1.c1ccc(-c2csc(NCCN(CCNc3nc(-c4ccccn4)cs3)CCNc3nc(-c4ccccn4)cs3)n2)nc1 [[L2Cu3]6+],% Inhibition Run 1,[1]; JNK2,22.9%
same,% Inhibition Run 2,[1]; JNK2,15.4%
same,"% Inhibition, Mean",[1]; JNK2,19%
same,mean % activity,[1]; JNK2,81%
same,% activity,"[1]; JNK2, Run 1",77.1%
same,% activity,"[1]; JNK2, Run 2",84.6%
same,"% Activation, Mean value",[2],3.55%
same,% Inhibition Run 1,[2],-1.3%
same,% Inhibition Run 2,[2],-5.8%
same,"% Inhibition, Mean",[2],-3.55%
same,mean % activity,[2],104%
same,% activity,[2]; Run 1,101.3%
same,% activity,[2]; Run 2,105.8%
same,% Inhibition Run 1,[3]; HER4,32.7%
same,% Inhibition Run 2,[3]; HER4,23.3%
same,"% Inhibition, Mean",[3]; HER4,28%
same,mean % activity,[3]; HER4,72%
same,% activity,"[3]; HER4, Run 1",67.3%
same,% activity,"[3]; HER4, Run 2",76.7%
same,% Inhibition Run 1,[4],42.1%
same,% Inhibition Run 2,[4],54.8%
same,"% Inhibition, Mean",[4],48%
same,mean % activity,[4],52%
same,% activity,[4]; Run 1,57.9%
same,% activity,[4]; Run 2,45.2%
same,"% Activation, Mean value",[5]; STK33,7%
same,% Inhibition Run 1,[5]; STK33,-1.8%
same,% Inhibition Run 2,[5]; STK33,-12.3%
same,"% Inhibition, Mean",[5]; STK33,-7%
same,mean % activity,[5]; STK33,107%
same,% activity,"[5]; STK33, Run 1",101.8%
same,% activity,"[5]; STK33, Run 2",112.3%
same,% Inhibition Run 1,[6]; PAK6,49.1%
same,% Inhibition Run 2,[6]; PAK6,47.9%
same,"% Inhibition, Mean",[6]; PAK6,49%
same,mean % activity,[6]; PAK6,52%
same,% activity,"[6]; PAK6, Run 1",50.9%
same,% activity,"[6]; PAK6, Run 2",52.1%
same,% Inhibition Run 1,[7]; MARK1,26.5%
same,% Inhibition Run 2,[7]; MARK1,16.9%
same,"% Inhibition, Mean",[7]; MARK1,22%
same,mean % activity,[7]; MARK1,78%
same,% activity,"[7]; MARK1, Run 1",73.5%
same,% activity,"[7]; MARK1, Run 2",83.1%
same,"% Activation, Mean value",[8]; TLK1,16%
same,% Inhibition Run 1,[8]; TLK1,-7.2%
same,% Inhibition Run 2,[8]; TLK1,-24.2%
same,"% Inhibition, Mean",[8]; TLK1,-16%
same,mean % activity,[8]; TLK1,116%
same,% activity,"[8]; TLK1, Run 1",107.2%
same,% activity,"[8]; TLK1, Run 2",124.2%
same,% Activity Run 1,"[8]; TLK1, 10 µM",107.20%
same,% Activity Run 2,"[8]; TLK1, 10 µM",124.20%
CC(=O)[O-].CC(=O)[O-].CC(=O)[O-].CC(=O)[O-].CC(=O)[O-].CC(=O)[O-].[Zn+2].[Zn+2].[Zn+2].c1ccc(-c2csc(NCCN(CCNc3nc(-c4ccccn4)cs3)CCNc3nc(-c4ccccn4)cs3)n2)nc1.c1ccc(-c2csc(NCCN(CCNc3nc(-c4ccccn4)cs3)CCNc3nc(-c4ccccn4)cs3)n2)nc1 [[L2Zn3]6+],"% Inhibition, Mean",[1]; JNK2,31%
same,"% Inhibition, Run 1 / Run 2",[1]; JNK2,33% and 28%
same,mean % activity,[1]; JNK2,70%
same,% activity,"[1]; JNK2, duplicate runs",67% and 72%
same,"% Activation, Mean value",[2],5%
same,"% Inhibition, Mean",[2],-5%
same,"% Inhibition, Run 1 / Run 2",[2],-3.4% and -6.5%
same,mean % activity,[2],105%
same,% activity,[2]; duplicate runs,103% and 107%
same,"% Inhibition, Mean",[3]; HER4,3.65%
same,mean % activity,[3]; HER4,96%
same,% activity,"[3]; HER4, duplicate runs",88% and 105%
same,"% Inhibition, Mean",[4],44%
same,"% Inhibition, Run 1 / Run 2",[4],44%
same,mean % activity,[4],56%
same,% activity,[4]; duplicate runs,57% and 56%
same,"% Inhibition, Mean",[5]; STK33,6.55%
same,"% Inhibition, Run 1 / Run 2",[5]; STK33,3.3% and 10%
same,mean % activity,[5]; STK33,93%
same,% activity,"[5]; STK33, duplicate runs",97% and 90%
same,"% Inhibition, Mean",[6]; PAK6,27%
same,mean % activity,[6]; PAK6,73%
same,% activity,"[6]; PAK6, duplicate runs",63% and 83%
same,"% Inhibition, Mean",[7]; MARK1,23%
same,"% Inhibition, Run 1 / Run 2",[7]; MARK1,26% and 20%
same,mean % activity,[7]; MARK1,77%
same,% activity,"[7]; MARK1, duplicate runs",74% and 80%
same,"% Inhibition, Mean",[8]; TLK1,-0.3%
same,mean % activity,[8]; TLK1,100%
same,% activity,"[8]; TLK1, duplicate runs",92% and 109%
